In patent US20070093520A1, “Method of treatment of diarrhea-predominant irritable bowel syndrome in a subject” (priority 2005, published 2007):

Assays:
[1] = system: subjects with ROME II defined IBS-D; assay: 5050 Study: double-blind placebo-controlled prn safety study, adverse events and withdrawals; assay type: in vivo, human; conditions: Study 5050
Procedure: The 5050 Study was a double-blind, randomized, placebo-controlled study to evaluate the long-term safety and tolerability of cilansetron 2 mg taken on an as needed (prn) basis for 1 year by male and female subjects with ROME II defined IBS-D. The study was performed in 68 centers. Patients were randomized in a 3:1 ratio to receive either cilansetron 2 mg prn or placebo, up to 3 times a day. Safety parameters were explored by comparing the double-blind groups, average daily doses and treatment exposure. Patient visits were scheduled as follows: Visit 1 (pretreatment), Visit 2 (Day 1), Visit 3 (Month 1), Visit 4 (Month 3), Visit 5 (Month 6), Visit 6 (Month 9), and Visit 7 (Month 12). Safety assessments included: adverse events (AEs)/serious adverse events (SAES); laboratory parameters (pretreatment visit and at Months 1, 6, and 12); electrocardiograms (pretreatment visit and at Months 1, 6, and 12); vital signs (at each visit); physical examinations and body weight (pretreatment visit and at Month 12); prior and concomitant medication use (each visit and/or through spontaneous reporting); stool cards for occult blood (every visit except Visit 1). The number of tablets taken per day was recorded daily through a validated interactive voice response system. Patients who met the ROME criteria for IBS and ROME II criteria for the diarrhea predominant subpopulation were included in the study. Patients with acute colitis of any etiology, history of chronic colitis of any etiology, or a history of intestinal obstruction, stricture, toxic megacolon, gastrointestinal (GI) perforation, or fecal impaction were excluded from the study.
For Study 5050, of a total of 402 patients randomized to treatment, 400 received study medication and 395 were included in the safety analysis (cilansetron, N=301; placebo, N=94). Five patients were excluded because of a lack of a post-baseline safety evaluation. Thirty nine percent of patients in the cilansetron group and 56% in the placebo group withdrew from the study; the differences in withdrawals largely were due to lack of efficacy (15% v. 34%, respectively), followed by other unspecified reasons (16% v. 19%, respectively) and AEs (10% v. 9%, respectively). Most patients (57%) were in the 41 to 64 year age category and 72% of all patients were female.

[2] = system: diarrhea-predominant IBS subjects; conditions: human, in vivo
[3] = system: diarrhea-predominant IBS subjects; assay: 3007 Study: 12-lead ECG abnormalities; assay type: in vivo, human; conditions: Study 3007
Procedure: Resting 12-lead ECGs were performed at Day 1 (Visit 5 of the core protocol), Months 1, 6, and 12 (end of study or early termination visit). A centralized ECG service was used to evaluate all ECG tracings to supply consistent standardized ECG interpretation.
All analyses and summaries for ECG assessments were based on the evaluation performed in the central ECG laboratory.
For Study 3007, “baseline’ was defined as the pre-treatment period of core Study 3006 for subjects randomized to the cilansetron treatment group in Study 3006 and as the last post-Baseline visit of Study 3006 (normally Visit 5) for subjects randomized to the placebo group in Study 3006. The by-timepoint analyses were based on timepoints defined in Section 5.7.1.2.
Summary statistics are presented for PR, QRS, QT, and QTc intervals (Bazett and Fridericia formulas) and heart rate at each visit and at Endpoint, as well as for change from Baseline results at each post-Baseline visit and at Endpoint. Bazett's and Fridericia's QTc intervals were calculated based on the following formulas: Bazett: QTc intervals=QT/√RR Fridericia: QTc intervals=QT/^3√RR
Markedly abnormal ECG parameter values collected after the first dose of study medication and within 30 days of the last dose of study medication were summarized overall. The following criteria were applied to identify markedly abnormal parameter values: • PR ≧0.210 sec; • QRS ≧0.120 sec; • QTc >0.440 sec;
Heart rate ≧120 bpm or ≦50 bpm or change of ≧15 bpm.
The determination of markedly abnormal for QTc was carried out separately for both the Bazett correction and the Fridericia correction.
The incidence of treatment-emergent ECG abnormalities is presented overall and by type of abnormality. A treatment-emergent ECG abnormality was an abnormality identified by the ECG core laboratory that was not present at baseline (e.g., prior to the entry into core Study 3006), and was observed on or after initiation of study medication and up to 30 days after discontinuation of study medication. The incidence of treatment-emergent ECG abnormalities is presented by time interval, as well as overall for the entire treatment period. The incidence of treatment-emergent abnormalities is also presented in more general categories (e.g., presenting incidence of treatment-emergent myocardial infarction overall as well as by location), depending on whether it mitigates the interpretation.
The overall incidence of marked abnormalities for ECG parameters is presented overall by gender and overall.

[4] = system: non-constipated IBS subjects; assay: Phase II clinical trial Study S241.2.113, adequate relief of IBS symptoms; assay type: in vivo, human; conditions: 2 mg TID
[5] = in vivo
Procedure: One subject took fluvoxamine while taking cilansetron 2 mg TID.

## Cc1nccn1C[C@H]1CCc2c(c3cccc4c3n2CCC4)C1=O [cilansetron, (R)-(−)-4,5,6,8,9,10-hexahydro-10-[(2-methyl-1H-imidazol-1-yl)methyl]-11H-pyrido-[3,2,1-jk]-carbazol-11-one]
[1]; 2 mg prn (N = 301)
  Treatment-related AE: Alanine aminotransferase increased: 9 (3) N (%)
  Treatment-related AE: Diarrhea (not otherwise specified): 5 (2) N (%)
  Treatment-related AE: Flatulence: 6 (2) N (%)
  Treatment-related AE: Headache (not otherwise specified): 13 (4) N (%)
  Treatment-related AE: Nausea: 15 (5) N (%)
  Treatment-related AE: Rectal Hemmorhage: 8 (3) N (%)
  treatment-related AE: abdominal pain not otherwise specified: 16 (5) N (%)
  treatment-related AE: constipation: 24 (8) N (%)
[1]; cilansetron group
  AE incidence: GI and abdominal pain (excluding oral and throat): 12%
  AE incidence: GI atonic and hypomotility disorders: 11%
  AE incidence: nausea and vomiting: 7%
  AE leading to study discontinuation: abdominal pain: 2%
  AE leading to study discontinuation: constipation: 2%
  treatment-related AE: abdominal pain not otherwise specified: 5%
  treatment-related AE: constipation: 8%
  withdrawals due to AEs: 10%
  withdrawals due to lack of efficacy: 15%
[2]; both
  TEAE leading to permanent discontinuation: Oesophageal Reflux Aggravated: 1 (<1%) n (%)
[2]; both, 52 weeks
  TEAE: Oesophageal Reflux Aggravated: 3 (<1%) n (%)
[2]; 52 weeks
  TEAE: Gastrooesophageal Reflux Disease: 4 (<1%) n (%)
[3]; female subjects
  marked ECG abnormality: decreased heart rate: 6%
  marked ECG abnormality: prolonged QTc(B): 23%
  marked ECG abnormality: prolonged QTc(F): 10%
  treatment-emergent ECG abnormality: early repolarization-normal variant: 2%
  treatment-emergent ECG abnormality: poor R-wave progression: 13%
  treatment-emergent ECG abnormality: sinus arrhythmia: 19%
[3]; male subjects
  marked ECG abnormality: decreased heart rate: 13%
  marked ECG abnormality: prolonged QTc(B): 6%
  marked ECG abnormality: prolonged QTc(F): 3%
  treatment-emergent ECG abnormality: early repolarization-normal variant: 19%
  treatment-emergent ECG abnormality: poor R-wave progression: 6%
  treatment-emergent ECG abnormality: sinus arrhythmia: 25%
[3]; overall
  incidence of prolonged QT interval: 4%
  marked ECG abnormality: heart rate decrease: 14%
  marked ECG abnormality: heart rate increase: 15%
  marked ECG abnormality: prolonged QTc(B): 17%
  subjects with a post-Baseline marked ECG abnormality: 50%
  subjects with a treatment-emergent ECG abnormality: 62%
  treatment-emergent ECG abnormality: borderline LA enlargement: 6%
  treatment-emergent ECG abnormality: early R-wave transition: 6%
  treatment-emergent ECG abnormality: early repolarization-normal variant: 8%
  treatment-emergent ECG abnormality: non-specific T-wave changes: 7%
  treatment-emergent ECG abnormality: poor R-wave progression: 11%
  treatment-emergent ECG abnormality: sinus arrhythmia: 21%
  treatment-emergent ECG abnormality: sinus bradycardia: 10%
[4]
  adequate relief of IBS symptoms versus placebo: superior to placebo
[5]
  increase of cilansetron plasma levels: approximately six to seven
